In US5576419A, “Mild solid-phase synthesis of aligned branched triple-helical peptides” (Regents of the University of Minnesota, priority 1995, dated 1996):

What was measured:
[1] = tested on: K1735M4 tumor cell; experiment: Melanoma cell adhesion to peptide-coated Immulon plates; assay type: cell-based, mouse; settings: for EC50: coated peptide 0.1-300 μM, cells adhered 1 h at 37 °C, one mole = three peptide chains, read-out: Half maximal melanoma cell adhesion (peptide concentration)
Description: (§1) K1735M4 tumor cell adhesion and spreading assays were as described previously [M. K. Chelberg et al., J. Cell Biol. 111, 261 (1990)] with minor alterations. Peptides were dissolved in PBS and adsorbed directly onto 96-well polystyrene Immulon 1 plates (Dynatech Laboratories Inc., Chantlily, Va.) overnight at 37° C. Nonspecific binding sites were blocked with 5 mg/mL bovine serum albumin in adhesion media [Dulbecco's modified Eagle's medium containing 20 mM 4-(2-hydroxyethyl)-1-piperazineethanesulfonic acid] for 2 h at 37° C. Tumor cells were released from tissue culture flasks with 37° C. PBS containing 10 mM EDTA and washed several times with adhesion media. Cells were labeled overnight with 1 μCi/mL [^3 H]thymidine (New England Nuclear, Boston, Mass.) for adhesion assays. Cells were added to the plate wells at a density of 50,000 cells/mL in a total volume of 100 μL and adhered for 1 h at 37° C. For adhesion assays wells were washed several times with adhesion media and remaining cells lysed and radioactivity determined as described [M. K. Chelberg et al., J. Cell Biol. 111, 261 (1990)]. For spreading assays wells were fixed and stained using DiffQuik reagents (Baxter) and photographed with a Nikon MF-15 camera mounted on a Nikon Diaphot inverted microscope at 200× magnification. Cell spreading was quantitated by an Optomax System IV image analyzer equipped with a Hitachi Monitor. The efficiency of peptide adsorption to the Immulon plates was determined as described [M. K. Chelberg et al., J. Cell Biol. 111, 261 (1990)] using ^3 H- or ^125 I-labeled peptide.

[2] = CD thermal transition (triple-helix melting), molar ellipticity at 225 nm; assay type: physicochemical; settings: [θ] at 225 nm; for Tm (triple-helical melt): 15-85 °C, 1-5% aqueous HOAc, pH 2.4
Description: Edman degradation sequence analysis was performed on an Applied Biosystems 477A Protein Sequencer/120A Analyzer for both solid-phase and "embedded" (non-covalent) sequencing as described by C. G. Fields et al., Anal. Biochem. 203, 245 (1992) and C. G. Fields et al., Peptide Res. 6, 39 (1993), which are incorporated herein by reference. Fulvene-piperidine concentrations (301 nm) and scanning UV spectra (200-320 nm) were determined with a BECKMAN DU-70 Spectrophotometer. Amino acid analyses were performed on a BECKMAN 6300 Analyzer with a sulfated polystyrene cation-exchange column (0.4 cm×25 cm). Peptides were hydrolyzed with 6N aqueous HCl at 110° C. for 18-48 h. Electrospray mass spectrometric (ES-MS) methods have been described by C. G. Fields et al., Peptide Res. 6, 39 (1993), which is incorporated herein by reference. Fast atom bombardment (FAB) MS was performed on a VG 7070E-HF with a glycerol matrix and laser desorption time-of-flight (LD-TOF) MS with both a breadboard and prototype matrix-assisted TOF mass spectrometer from Millipore Corporation (Milford, Mass.) with a sinapinic acid matrix [saturated solution of 10 mg/mL sinapinic acid dissolved in acetonitrile-H2 O (1:3) containing 0.1% TFA]. THPs were ^3 H-labeled by reductive methylation [N. Jentoft et al., J. Biol. Chem. 254, 4359 (1979)] with NaCNBH3 and [^3 H]formaldehyde, desalted over a Sephadex G-50 column (50×1.5 cm) in PBS, pH 7.4, and analyzed by size-exclusion chromatography (SEC). CD spectroscopy was performed on a Jasco 710 spectropolarimeter using a 100 or 200 μL, 0.1 mm cell. The THP concentrations (determined spectrophotometrically) in 1-5% aqueous HOAc, pH 2.4 were [THP-1]=0.16 mM, [THP-2]=0.084 mM, [THP-3]=0.068 mM, and [THP-4]=0.015 mM. Spectra were recorded by accumulating 5 scans at 0.5 nm intervals (response of 1 sec). Thermal transitions were examined by measuring the molar ellipticity ([θ]) at 225 nm from 15°-85° C.

[3] = tested on: K1735M4 tumor cell; experiment: Melanoma cell spreading on peptide-coated plates; assay type: cell-based, mouse; settings: for cell areas averaged (cell spreading): [THP-2]=0.9 μM, [SSP]=2.1 μM, [GPP*]=1.4 μM
Description: as §1

Substance | increase in melanoma cell adhesion activity compared with the α1(IV) 1263-1277 sequence alone ([1]; THP-2 versus SSP) | EC50 [1] | midpoint of low temperature transition (aggregation) ([2]; 5% aqueous HOAc, pH 2.4, shown by SEC to be aggregation) | Tm (triple-helical melt) [2] | Cell spreading, comparison in words ([3]; THP-2 versus SSP and GPP*) | cell areas averaged (cell spreading) [3]
(Gly-Pro-Hyp)8 -Gly-Val-Lys-Gly-Asp-Lys-Gly-Asn-Pro-Gly-Trp-Pro-Gly-Ala-Pro [THP-2] | 100 fold | 1120 nM | 23.5 °C | 58.5 °C | more extensive | 0.048 mm^2 /μM peptide
(Gly-Pro-Hyp)8 [THP-3] |  | > 100000 nM |  | 42.5 °C |  | 0.017 mm^2 /μM peptide
(Gly-Pro-Hyp)8 -Gly-Glu-Phe-Tyr-Phe-Asp-Leu-Arg-Leu-Lys-Gly-Asp-Lys [THP-1] |  |  |  | 53.0 °C |  | 
(Gly-Pro-Hyp)3 -Gly-Val-Lys-Gly-Asp-Lys-Gly-Asn-Pro-Gly-Trp-Pro-Gly-Ala-Pro [THP-4] |  |  |  | 35.0 °C |  | 
